Several values for one entry are separate records, joined by “and”; a condition that tells them apart may be missing. Identical values can stand only once.
Columns and labels:
[1] = test system: MiaPaCa-2 cells; assay: IncuCyte label-free cell confluence proliferation assay; format: cell-based, human; conditions: PDAC / MiaPaCa-2, from two independent cell growth assays
Description: Cell proliferation was measured using a label-free, non-invasive cellular confluence assay employing the IncuCyte™ Live-Cell Imaging Analyzer (Essen Bioscience). This system provides real-time cellular confluence data based on segmentation of high definition phase contrast images. […] MiaPaCa2 cells were treated with Met (1 and 2 mM) or Mito-Met-C10 (1-2 μM).
(§1) IncuCyte Analyzer-real time measurement of cell proliferation. The cell proliferation was measured using a label-free, noninvasive cellular confluence assay by IncuCyte Live-Cell Imaging Systems (Essen Bioscience, Ann Arbor, Mich., USA; IncuCyte FLR). This system enables collection of live cell images at 2 h intervals over several days. The IncuCyte Analyzer provides real-time cellular confluence data based on segmentation of high-definition phase-contrast images. The cell proliferation is expressed as an increase in percentage of cell confluence.

[2] = test system: MiaPaCa-2 cells; assay: Clonogenic (colony formation) assay; format: cell-based, human
Description: Clonogenic assay. […] The plates were kept within the incubator and media changed every 3-4 days until the control cells formed sufficiently large clones. The cell survival fractions were calculated as previously described.
MiaPaCa-2 cells were treated with a range of concentrations as shown (FIG. 10C), and the number of colonies formed were counted.

[3] = test system: MiaPaCa-2 cells; assay: Oxygen consumption rate in intact cells, Seahorse XF96; format: cell-based, human; conditions: for effect on OCR: immediate
Description: Respiratory enzyme activity in intact and permeabilized cells. The mitochondrial function in intact and permeabilized pancreatic cancer cells was measured using a Seahorse XF96 Extracellular Flux Analyzer (Seahorse Bioscience, North Billerica, Mass., USA). Unless specified otherwise, assays in intact cells were performed as previously described. Measurement of mitochondrial respiratory complexes in permeabilized cells was performed according to the manufacturer's instructions (Seahorse Bioscience). Briefly, intact cells were permeabilized using 1 nM Plasma Membrane Permeabilizer (PMP, Seahorse Bioscience) immediately before oxygen consumption rate (OCR) measurement by XF96. The oxygen consumption derived from mitochondrial complex I or complex II activity was measured by providing different substrates to mitochondria, e.g., pyruvate/malate for complex I and succinate for complex II activity. Rotenone, malonate and antimycin A were used as specific inhibitors of mitochondrial complex I, II and III activities, respectively.
Effects of Met and Mito-Met analogs on mitochondrial bioenergetics in MiaPaCa-2 cells. The oxygen consumption rate (OCR) and the extracellular acidification rate (ECAR) were measured as a readout of mitochondrial function and glycolysis using a Seahorse Bioscience XF96 extracellular flux analyzer. We compared the immediate OCR changes in response to different concentrations (e.g., IC50 or higher values determined by clonogenic assay) of Met, Mito-Met2, Mito-Met6, Mito-Met10, and phenformin (FIG. 13A).
Next we monitored the mitochondrial OCR changes in MiaPaCa-2 cells after 24 h treatment with Met, Mito-Met analogs, and phenformin followed by a washout of the treatments and return to fresh cell culture media.

[4] = test system: AMPK; assay: Immunoblot of phosphorylated AMPK Thr-172 relative to total AMPK, FC1199 cells; format: cell-based; conditions: murine FC1199, 1 μM, 30 min
Description: In this example, the inventors have shown that the mito-met compounds of the present invention cause an increased AMPK activation in cancer cells. In preliminary experiments (FIG. 4), human MiaPaCa2 and murine FC1199 PDAC cells treated 30 min with 1 μM mito-met (MM), 1 mM Met, or the oligomycin positive control were lysed, and proteins size-separated on SDS-PAGE, transferred to PVDF, and probed with an antibody to phosphorylated AMPK Thr-172.
Immunoblotting. MiaPaCa-2 PDAC cells (1×10^6) were plated to 80% confluency in 60 mm dishes and then serum-starved for 5 hours. […] Cells were stimulated with oligomycin as a positive control. After stimulation, cells were washed twice in cold PBS and lysed using a modified RIPA buffer. Lysates were normalized for protein concentration, size separated using reducing SDS-PAGE, electro-transferred to PVDF membranes (Millipore) and then probed using primary and horseradish peroxidase-conjugated secondary antibodies. Antibodies against total or phosphorylated 5′ AMP-activated protein kinase (AMPK) were purchased from Cell Signaling Technology (Danvers, Mass.) and used at the manufacturer's recommended dilutions. Proteins were visualized by chemiluminescence with auto-exposure and quantified by densitometric analysis using the FluorChem HD2 from Cell Biosciences (Santa Clara, Calif.).
AMPK activation in Mito-Met and Met-treated PDAC cells. […]

[5] = test system: MiaPaCa-2 cells; assay: Radiosensitization, clonogenic survival after X-radiation; format: cell-based, human
Description: MiaPaCa2 cells (1000 cells/well) were cultured in quadruplicate overnight in 96-well plates and changed to fresh medium.
(§2) Radiation experiments. […] The cells were then treated with X-radiation at a dose of 0, 2, 4, and 6 Gy. The control cells were treated with the same concentration of vehicle (0.1% DMSO) where appropriate. After irradiation, cells were suspended and seeded at various densities (100-8,000 cells per well) in 6-well plates for clonogenic assay as described above. The plates were kept within the incubator and media changed every 3-4 days for 2 weeks. Wells with 10-50 sufficiently large clones were chosen for calculating the cell survival fractions.
(§3) Effect of Mito-Met and Met on PDAC radiosensitivity. Both control cells and cells were pretreated for 24 h with 1 mM Met or Mito-Met (1 μM) prior to X-radiation. Cell survival was measured by a clonogenic assay.

[6] = test system: MCF-10A cells; assay: Radiosensitization, clonogenic survival after X-radiation, normal cells; format: cell-based; conditions: 1 μM, 24 h pretreatment
Description: as §2, §3

[7] = Tissue accumulation in FC1242-luc orthotopic mice; format: in vivo; conditions: 1 mg/kg daily for two weeks; liver, kidney, spleen, tumor
Description: FIG. 19. Tissue accumulation of Mito-Met in in vivo FC1242-luc orthotopic mouse model. FC1242-luc orthotopic mice treated with Mito-Met10 (1 mg/kg) daily for 2 weeks. Tissue harvesting and extractions were performed 3 days after the last treatment. Quantitative data on concentrations of Mito-Met after normalization to tissue wet weight are represented as mean±SD, n=5.

[8] = test system: MCF-10A; assay: IncuCyte cell confluence assay, nonmalignant breast epithelial cells; format: cell-based
Description: as §1

[9] = test system: HaCaT; assay: IncuCyte cell confluence assay, keratinocytes; format: cell-based
Description: as §1

SMILES: Br.N=C(N)NC(=N)NCCCCCCCCCC[P+](c1ccccc1)(c1ccccc1)c1ccccc1 [Mito-Met10]
- fold more effective than metformin in inhibiting cell proliferation [1]: ~1,000 fold and > 1,000 fold
- fold more effective than metformin in inhibiting cell proliferation ([1]; listed as mito-met-C10): ~1,000 fold
- colony formation ([2]; 3 μM, 24 h): Almost no colony formation
- IC50 ([2]; read-out: IC50, colony formation / survival fraction, MiaPaCa-2, 24 h treatment): 1100 nM
- concentration at which OCR was inhibited ([3]; 24 h treatment, washout): 1 µM
- effect on OCR ([3]; 1 μM): did not inhibit OCR
- effect on OCR ([3]; ≈10 μM): slight inhibition
- increase in active AMPK (phosphorylated relative to total protein) [4]: 1.5-2.5 fold
- radiosensitizing concentration, fold lower than Met ([5]; 1 μM versus Met 1 mM): 1,000 fold
- radiosensitization ([5]; 24 h pretreatment (1 mM Met, 1 μM Mito-Met) before X-radiation): as effective as 1 mM Met
- radiosensitivity in normal cells [6]: no radiosensitivity was observed
- tissue accumulation [7]: increased accumulation
- effect on cell confluence [8]: not significantly affected
- effect on cell confluence [9]: not significantly affected

Reference: patent US20190358247A1 (The Medical College of Wisconsin, Inc., priority 2016, published 2019)
